≈ marks a conversion by molar mass, not a printed value. Where a name gives a salt, the structure may show the parent alone. Read-outs that look alike come from different tables or passages of the source.
Legend:
[1] = system: S. aureus ATCC 29213; test: In vitro antibacterial evaluation, MIC by agar dilution, S. aureus ATCC 29213; format: cell-based; details: Staphylococcus aureus, ATCC29213
Method in brief: (§1)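 Log-phase cultures (4-6 h broth growth) are adjusted to 0.5 McFarland and diluted to give roughly 10^4 cfu per 1 μL spot. Spots go onto Mueller-Hinton agar containing test compound in two-fold dilutions (128 to ≤0.25 μg/mL), then plates incubate 16-20 hours at 35°-36° C before MIC reading.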

[2] = system: S. aureus 76 (Meth^R)(lac^+); test: In vitro antibacterial evaluation, MIC by agar dilution, S. aureus 76; format: cell-based; details: Staphylococcus aureus, read-out: MIC
Method in brief: as §1

[3] = system: S. aureus Col8A (Meth^S)(lac^-); test: In vitro antibacterial evaluation, MIC by agar dilution, S. aureus Col8A; format: cell-based; details: Staphylococcus aureus
Method in brief: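 Log-phase isolates were spot-inoculated at about 10^4 cfu onto Mueller-Hinton agar carrying duplicate two-fold compound levels, 128 μg/mL to ≤0.25 μg/mL, following NCCLS (1991). Plates were read after 16-20 h at 35°-36° C. The lowest growth-inhibiting concentration gave the MIC (μg/ml).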

[4] = system: S. haemolyticus (Meth^R); test: In vitro antibacterial evaluation, MIC by agar dilution, S. haemolyticus; format: cell-based; details: Staphylococcus haemolyticus, read-out: MIC
Method in brief: as §1

[5] = system: E. faecium ATCC 35667; test: In vitro antibacterial evaluation, MIC by agar dilution, E. faecium ATCC 35667; format: cell-based; details: Enterococcus faecium, ATCC35667, read-out: MIC
Method in brief: as §1

[6] = system: E. faecalis ATCC 29212; test: In vitro antibacterial evaluation, MIC by agar dilution, E. faecalis ATCC 29212; format: cell-based; details: Enterococcus faecalis, ATCC29212; E. faecalis ATCC 29212; read-out: MIC
Method in brief: as §1

[7] = system: E. coli ATCC 25922; test: In vitro antibacterial evaluation, MIC by agar dilution, E. coli ATCC 25922; format: cell-based; details: Escherichia coli, ATCC25922, read-out: MIC
Method in brief: as §1

[8] = system: P. aeruginosa ATCC 27853; test: In vitro antibacterial evaluation, MIC by agar dilution, P. aeruginosa ATCC 27853; format: cell-based; details: Pseudomonas aeruginosa, ATCC27853, read-out: MIC
Method in brief: as §1

[9] = system: methicillinsusceptible S. aureus strain ATCC 13709; test: In vivo antibacterial evaluation, murine model for lethal bacteremic peritonitis; parameters: species or system S. aureus in female Swiss-Webster mice; details: Staphylococcus aureus, ATCC13709, sc, 72 h, two equal SC doses at challenge and 2 hours later, mice, probit, read-out: ED50
Experimental: Groups of 5 female Swiss-Webster mice (Simonsen, Gilroy, Calif.) each are challenged by the intraperitoneal (IP) route with ten-fold increments of a bacterial inoculum. This permits calculation of the mean lethal dose (LD50) and the LD100. For preliminary evaluation of a new antibiotic, mice are challenged IP with an LD100 titer of bacteria. In two equal doses administered at the time of bacterial challenge and 2 hours later, groups of 10 mice each are treated subcutaneously with two-fold increments of the test drug and an antibiotic of known efficacy in mice and humans (i.e., positive control). Mice are observed for 72 h. Those alive at 72 h are considered long term survivors. The total drug dose in mg/kg that protects 50% of mice in a group from death is termed the mean protective dose (PD50). PD50 s are similarly determined for several pathogens. The quantitative endpoints for the new drug are then compared with those obtained with reference antibiotics.
Six ten-fold dilutions of inoculum suspended in 0.5 mL of sterilized 7% hog gastric mucin (Sigma) are injected IP in groups of 5 mice each. A control group of 5 mice receive mucin alone. Mice are observed for 72 h. Those alive at 72 h are considered long term survivors. The mean lethal dose (LD50) and 100% lethal dose (LD100) are determined by the probit test.
For antibiotic efficacy studies, mice are challenged IP with bacterial titers that will afford an LD100 for the test strain. In two equal doses administered at the time of bacterial challenge and 2 hours later, groups of 10 mice each are treated by the subcutaneous route (SC) with twofold increments of the test antibiotic; another group is treated similarly with a reference antibiotic of known efficacy in animals and man. Drug doses can range from 0.01 to 512 mg/kg. If the drug is poorly soluble, Tween 20 or propylene glycol will be employed to solubilize the drug. Animals are observed for 72 h. The 50% protective dose (PD50) is calculated in mg/kg by the probit method. The PD50 is the same as the 50% effective dose (ED50) and the 50% curative dose (CD50). Samples of blood from the hearts of all animals that die and from half the mice that survive are cultured on brain-heart infusion agar. Animals that received a protective dosage of the test drug will be alive at 72 h, although they may appear moderately ill to very ill during the observation period. […] Most of these mice will die within 6 to 48 h. Those alive at 72 h will be considered long term survivors.
(§2) data reported for challenge with methicillinsusceptible S. aureus strain

[10] = system: methicillinsusceptible S. aureus strain ATCC 13709; test: Challenge strain MIC; format: cell-based; details: Staphylococcus aureus
Experimental: The compounds of the invention were evaluated against several β-lactamresistant bacteria strains by determining the minimum inhibitory concentration (MIC, μg/ml) of each compound with respect to each strain. The MIC, the lowest concentration of antibiotic which inhibits growth of the test organism, was determined by the agar dilution method.
To determine the MIC for bacterial isolates, the test compound was incorporated in a series of two-fold dilutions into liquified Mueller-Hinton agar. Upon solidification, a number of different bacterial strains were spot inoculated with a replicating device onto the agar surface. […] The procedures used in these studies have been standardized by the National Committee for Clinical Laboratory Standards (NCCLS), as per the NCCLS publication entitled METHODS FOR DILUTION ANTIMICROBIAL SUSCEPTIBILITY TESTS (1991), which is incorporated herein by reference.
Aliquots of antimicrobial agents were prepared in phosphate buffered saline (PBS) at pH 7.2. Tween 20 or DMSO was used as a solubilizing vehicle as needed. Standard methods of vortexing, sonicating and gentle heat were used to facilitate solubilizing the test agent. Typically, the concentration of the stock solution was 10× that of the highest drug concentration tested. A 1.28 mg/mL stock solution was used with a subsequent highest working concentration of 128 μg/mL. Serial two-fold dilutions were done through ≤0.25 μg/mL. Each drug level was tested in duplicate. Two-fold drug dilutions were done in sterile 50 mL tubes with a final drug volume of 5 mL. Upon the addition of 45 mL of molten agar, a 10-fold dilution resulted. Two, 25 mL. plates were then poured into 15×150 mm square Petri plates with grids and allowed to harden.
A control plate with a reference drug, either cefotaxime, vancomycin or imipenem, was used as the positive growth control. Stock concentrations of reference antibiotics were prepared and frozen at -80° C. Upon preparation, the control plates were sealed and stored in the refrigerator for up to 1 week prior to use; however, imipenem control plates had to be prepared just prior to use. All test plates were used within 24 hours of preparation.
Satisfactory results were obtained where the inoculum contained about 10^4 colony forming units (cfu) ±0.5 logs. Starting with pure cultures of the test isolates on agar plates, a few isolated colonies were transferred to a tube of nutrient broth and allowed to grow 4-6 hours at 35°-36° C. to reach log-phase growth. Dropwise addition of the broth culture to PBS was done to match a 0.5 McFarland turbidity standard equal to 10^8 cfu/mL. This was further diluted ten-fold in PBS to reach a working inoculum concentration of 10^7 cfu/mL. When 1 μL of the working inoculum was applied to the agar surface a concentration of about 10^4 cfu per spot was obtained.
Disposable sterile 1 μL loops were used to inoculate test plates, with each isolate in a designated grid on the agar plate. An alternate method of inoculation involved the use of a replica plater, a device with 48 steel pins allowing the simultaneous inoculation of multiple isolates. After the spots had dried, the plates were incubated at 35°-36° C. for 16-20 hours. Endpoints were assessed as the minimum inhibitory concentration (MIC) of antimicrobial agent.
as §2

[11] = ATCC13709, S. aureus ATCC 13709, read-out: Challenge str MIC
[12] = S. aureus ATCC 29213, read-out: MIC

Row | SMILES | MIC [1] [µg/mL] | MIC [2] [µg/mL] | MIC [3] [µg/mL] | MIC [4] [µg/mL] | MIC [5] [µg/mL] | MIC [6] [µg/mL] | MIC [7] [µg/mL] | MIC [8] [µg/mL] | ED50 [9] [mg/kg] | MIC [10, 11] [µg/mL] | MIC [1, 12] [µg/mL] | MIC ([10]; ATCC13709, read-out: Challenge str MIC) [µg/mL]
1 | N=C(N)SCc1ccccc1SC1=C(C(=O)O)N2C(=O)[C@@H](NC(=O)Cc3ccccc3CN)[C@H]2SC1 [Cmpd 101, (7R)-7-[((2-Aminomethylphenyl)acetyl)amino]-3-(2-isothiouroniummethylphenylthio)-3-cephem-4-carboxylate, trifluoroacetic acid salt] | 0.25 | 8 | 0.25 | 16 | 2 | 1 | > 32 | > 32 | 0.65 | 0.125 |  | 
2 | N=C(N)SCc1ccc(CC(=O)N[C@@H]2C(=O)N3C(C(=O)O)=C(Sc4ccccc4CSC(=N)N)CS[C@H]23)cc1 [Cmpd 97, (7R)-7-[((4-isothiouroniummethylphenyl)acetyl)amino]-3-(2-isothiouroniummethylphenylthio)-3-cephem-4-carboxylate, trifluoroacetic acid salt] |  | 4 | 0.125 | 8 | 1 | 0.5 | > 32 | > 32 | 0.74 | 0.062 | 0.06 | 
3 | O=C(CSc1ccccc1)N[C@@H]1C(=O)N2C(C(=O)O)=C(Sc3ccnn3-c3ccccc3)CS[C@H]12 [Cmpd 119, (7R)-7-[(phenylthioacetyl)amino]-3-(1-N-phenylpyrazol-5-ylthio)-3-cephem-4-carboxylic acid] |  | 8 (≈ 15.2 µM) | 0.06 (≈ 0.114 µM) | 16 (≈ 30.5 µM) | 1 (≈ 1.91 µM) | 1 (≈ 1.91 µM) | > 32 | > 32 | > 5 | 0.25 (≈ 0.477 µM) | 0.125 (≈ 0.238 µM) | 
4 | Nc1nc(/C(=N/OCC2CC2)C(=O)N[C@@H]2C(=O)N3C(C(=O)O)=C(Sc4ccnn4-c4ccccc4)CS[C@H]23)cs1 [Cmpd 108, (7R)-7-[(Z)-2-(2-aminothiazol-4-yl)-2-(cyclopropylmethyloxyimino)acetamido]-3-(1-N-phenylpyrazol-5-ylthio)-3-cephem-4-carboxylic acid] |  | 8 (≈ 13.4 µM) | 0.5 (≈ 0.837 µM) | 16 (≈ 26.8 µM) | 16 (≈ 26.8 µM) | 16 (≈ 26.8 µM) | 4 (≈ 6.69 µM) | 16 (≈ 26.8 µM) | > 10 | 0.5 (≈ 0.837 µM) | 0.5 (≈ 0.837 µM) | 
5 | O=C(CC1CC1)N[C@@H]1C(=O)N2C(C(=O)O)=C(Sc3ccnn3-c3ccccc3)CS[C@H]12 [Cmpd 107, (7R)-7-[(cyclopropylacetyl)amino]-3-(1-N-phenylpyrazol-5-ylthio)-3-cephem-4-carboxylic acid] | 0.25 (≈ 0.548 µM) | 16 (≈ 35 µM) | 0.25 (≈ 0.548 µM) | 32 (≈ 70.1 µM) | 8 (≈ 17.5 µM) | 8 (≈ 17.5 µM) | > 32 | > 32 | 1.58 | 0.125 (≈ 0.274 µM) |  | 
6 | O=C(O)C1=C(Sc2ccnn2-c2ccccc2)CS[C@@H]2[C@H](NC(=O)C3SCCS3)C(=O)N12 [Cmpd 115, (7R)-7-[(2-dithiolanylcarbonyl)amino]-3-(1-N-phenylpyrazol-5-ylthio)-3-cephem-4-carboxylic acid] | 0.25 (≈ 0.493 µM) | 8 (≈ 15.8 µM) | 0.25 (≈ 0.493 µM) | 32 (≈ 63.2 µM) | 8 (≈ 15.8 µM) | 4 (≈ 7.89 µM) | > 32 | > 32 | 3.04 | 0.25 (≈ 0.493 µM) |  | 
7 | N#Cc1ncccc1SC1=C(C(=O)O)N2C(=O)[C@@H](NC(=O)Cc3ccccc3)[C@H]2SC1 [Cmpd 102, (7R)-7-[(Phenylacetyl)amino]-3-(2-cyanopyridin-3-ylthio)-3-cephem-4-carboxylic acid] | 0.125 (≈ 0.276 µM) | 16 (≈ 35.4 µM) | 0.125 (≈ 0.276 µM) | 32 (≈ 70.7 µM) | 4 (≈ 8.84 µM) | 2 (≈ 4.42 µM) | 32 (≈ 70.7 µM) | > 32 | 1.75 |  |  | 0.125 (≈ 0.276 µM)
8 | Cc1nnc(SCC(=O)N[C@@H]2C(=O)N3C(C(=O)O)=C(Sc4ccnn4-c4ccccc4)CS[C@H]23)s1 [Cmpd 118] |  | 8 (≈ 14.6 µM) | 0.125 (≈ 0.229 µM) | 32 (≈ 58.5 µM) | 4 (≈ 7.32 µM) | 4 (≈ 7.32 µM) | > 32 | > 32 | 3.38 | 0.06 (≈ 0.11 µM) | 0.25 (≈ 0.457 µM) | 
9 | O=C(Cc1ccccc1)N[C@@H]1C(=O)N2C(C(=O)O)=C(Sc3cccnc3-n3cccn3)CS[C@H]12 [Cmpd 103, (7R)-7-[(Phenylacetyl)amino]-3-(2-(pyrazol-1-yl)pyridin-3-ylthio)-3-cephem-4-carboxylic acid] | 0.25 (≈ 0.507 µM) | 8 (≈ 16.2 µM) | 0.25 (≈ 0.507 µM) | 4 (≈ 8.1 µM) | 2 (≈ 4.05 µM) | 1 (≈ 2.03 µM) | > 32 | > 32 | 2.67 | 0.125 (≈ 0.253 µM) |  | 
